In US11806343B2, “Inhibitors of DUX4 induction for regulation of muscle function” (Sonic Master Limited, priority 2017, dated 2023):
Values joined by “and” are separate entries in the source; they are usually repeats but may differ in a detail not shown here. Identical values can stand only once.

Tests used:
[1] = system: Genea049 FSHD hESC-SkM; assay: FSHD hESC-SkM immunocytochemistry, Myosin Heavy Chain and nuclei (myogenic inhibition/toxicity); type: cell-based, human
Protocol: (§1) FIG. 6 provides an example of a screening and culturing workflow for hESC-SkM assays. At Day 0, hESC-derived myoblasts are thawed into a 96-well plate in myoblast medium (Genea BioCells). On Day 2, the medium is replaced with new myoblast medium containing 1.15 μM. Decitabine. […] On Day 7, the myotubes are analyzed. For example, the myotubes may be analyzed for MHC expression or DUX4 expression.
(§2) Genea049 FSHD-affected human Embryonic Stem Cells (hESCs) were differentiated using Genea's myogenic differentiation protocol (Caron et 2015) to the myoblast stage and cryopreserved. Frozen myoblasts were resuscitated and 4500 cells were plated into each well of a 96-well collagen I coated tissue culture plate in myoblast medium. After two days of cell growth medium was changed to 100 μL per well myoblast medium containing 1.15 μM Decitabine. […] Cells were allowed to differentiate to myotubes for four additional days then were fixed and analyzed for quantification of DUX4 expression, Myosin Heavy Chain expression, and nuclei number. Triplicate wells of each condition were averaged.
as §2, with “et al.,” for “et”, “number by high-content imaging.” for “number.”

[2] = system: myotube marker genes; assay: Nanostring panel transcript analysis, myogenic genes; type: cell-based, human; conditions: 17MB026 primary myotubes, 30 nM-3 μM, 3 days
Protocol: (§3) 17MB026 primary FSHD-affected patient myoblasts (obtained from the University of Rochester FSHD Biorepository) were thawed and cultured as described in Rickard et al., 2015 in primary myoblast medium. Cells (4000 per well) were seeded to a collagen-I coated 96-well plate in 100 μL primary myoblast medium. Medium was changed every other day until cells reached 80% confluence followed by a switch to 100 μL per well primary myotube medium. […] Cells were lysed after 3 days of myotube formation using 10 μL of iScript Buffer (Biorad) per well. The resulting lysates were frozen at −30° C. After thaw, 5 μL of each lysate was combined with a custom-designed Nanostring transcript probe and capture codeset. Probes were hybridized to lysates and run cartridge was loaded and run per standard protocol. Normalization and background subtraction were performed using the nSolver 3.0 software using standard conditions DUX4 target gene and myotube marker gene expression values were normalized to a standard set of housekeeping genes. Duplicate wells of each condition were averaged.

[3] = system: PRKDC; assay: Immunofluorescence of nuclear phosphorylated PRKDC^2609 in primary myocytes; type: cell-based, human; conditions: 100 nM or 500 nM, 1 hour
Protocol: Patient biopsy-derived primary myoblasts were seeded to a collagen-I coated plate in primary myoblast medium. Medium was changed every other day until cells reached 80% confluence followed by a switch to primary myotube medium. […] PRKDC (phosphorylated PRKDC^2609), active SRC (phosphorylated SRC^416), and nuclei.

[4] = system: 17MB026 primary FSHD-affected patient myotubes; assay: Live cell imaging of % cell confluence through myotube formation; type: cell-based, human; conditions: 17MB026 primary myotubes, six concentrations, four days of myotube formation
Protocol: (§4) 17MB026 primary FSHD-affected patient myoblasts (obtained from the University of Rochester FSHD Biorepository) were thawed and cultured as described in Rickard et al., 2015 in primary myoblast medium. Cells (4000 per well) were seeded to a collagen-I coated 96-well plate in 100 μL primary myoblast medium. Medium was changed every other day until cells reached 80% confluence followed by a switch to 100 μL per well primary myotube medium. […] Cells were imaged in the phase contrast channel every six hours for four days and cell confluence in each image was quantified, Triplicate wells of each condition were averaged.

[5] = system: DUX4; assay: DUX4 expression downregulation by kinase family inhibitors (Table 1); type: cell-based; conditions: at the lowest significant concentration; listed as DCC2036
[6] = Tissue distribution study, brain and muscle; type: in vivo, CD-1 mice; conditions: mouse; for Uninjected muscle exposure / brain exposure: samples at 1 hour and 24 hours
Protocol: Intraperitoneal injection, which provides the drug via absorption into the mesenteric blood supply and is thus subject to hepatic first-pass metabolism, was used to approximate oral dosings total of 96 mice were utilized: 3 naive CD-1 male mice and 3 naïve CD-1 female mice were dosed per route of administration per 2 doses plus 3 naive CD-1 male mice and 3 naïve CD-1 female mice were per route of administration per dose for tissue collection. Following administration, blood, brain, and muscle samples were collected as follows; Two blood samples were collected from each mouse at 2 distinct timepoints over 24 bout post-dose to include 0.25, 0.5, 1, 2, 4, 8, and 24 hours. Blood samples were centrifuged to obtain plasma samples. For each time point, duplicate aliquots of plasma were transferred into an appropriately labeled sample tube containing a volume of buffer. The diluted plasma samples were stored at −20° C. for the first 24 hours and then transferred to −80° C. 24 hours of processing. Terminal brain and muscle samples were collected at 1 hour and 24 hours after administration. Tissue samples were temporarily put on dry ice and then stored at −20° C. for the first 24 hours and then transferred to −80° C. 24 hours of collection Plasma, brain and muscle samples were analyzed for test substance quantification using a method based on protein precipitation followed by HPLC-MS/MS analysis within optimized bioanalytical method.
FIG. 31B. […] For IM injected animals, both the injected gastrocnemius muscle and the contralateral (uninjected gastrocnemius)) muscle were collected. […] Concentrations are shown as mean with SD, N=6

[7] = system: DUX4 target genes; assay: Nanostring panel transcript analysis, DUX4 target genes; type: cell-based, human; conditions: 17MB026 primary myotubes, six-point dose curve 30 nM-3 μM, 3 days
Protocol: as §3

[8] = system: DUX4; assay: FSHD hESC-SkM immunocytochemistry, DUX4 expression; type: cell-based, human
Protocol: as §1, §2
as §2, with “et al.,” for “et”, “number by high-content imaging.” for “number.”

[9] = system: Caspase 3/7; assay: Live cell imaging of Caspase 3/7 cleavage dye fluorescence through myotube formation; type: cell-based, human; conditions: 17MB026 primary myotubes, six concentrations 10 nM-3 μM, imaged four days
Protocol: as §4, with “80% continence” for “80% confluence”, “myotube medium containing 1:5000 diluted Caspase 3/7 Green. Apoptosis Assay Reagent (Essen Bioscience).” for “myotube medium.”, “phase and green channels” for “phase contrast channel”, “days to quantify green intensity×area per image.” for “days and cell confluence in each image was quantified,”

With `CNC(=O)c1cc(Oc2ccc(NC(=O)Nc3cc(C(C)(C)C)nn3-c3ccc4ncccc4c3)c(F)c2)ccn1` [GBC0905, Rebastinib] the “Myosin Heavy Chain expression and nuclei count, dose curve” value ([1]; 10 nM-3 μM, four days) was “not seen in cells treated with GBC0905 (Rebastinib) at concentrations lower than 3 μM”, the “Myosin Heavy Chain expression and nuclei count” value ([1]; 100 nM, four days of culture) was “these effects are not seen” and the “expression of characteristic myotube genes” value [2] was “does not decrease expression of queried characteristic myotube genes”. For the same compound, the “intensity distribution of nuclear phosphorylated PRKDC^2609 (kinase activity)” value [3] was “significant shift towards lower intensity levels”, the “FSHD cell death measured by retained % cell confluence” value [4] was “dose-dependent rescue of FSHD cell death” and the “Quantitation % of DUX4 reduction @the lowest significant [C]” value [5] was 66.39% and 51.75% and 79.76% and 82.94%. For the same compound, the Brain concentration ([6]; 24 hours after IM injection at 10 mg/kg) was “below the Lower Limit of Quantification (LLOQ)”, the Uninjected muscle exposure ([6]; intramuscular administration) was ≤ 157 ng/g and the brain exposure ([6]; intramuscular administration) was ≤ 351 ng/g. For the same compound, the “Exposure of the injected muscle (gastrocnemius)” value ([6]; intramuscular dosing, after 24 hours) was 1441667 ng/g, the Uninjected muscle exposure ([6]; intraperitoneal administration) was “up to 1336 ng/g” and the brain exposure ([6]; intraperitoneal administration) was “up to 441 ng/g”. For the same compound, the “expression of DUX4-activated genes” value [7] was “dose-dependent decrease of 11 DUX4-activated genes”, the DUX4 expression ([8]; Genea049 hESC-SkM, 100 nM, four days of culture during myotube formation) was “decreased DUX4 expression” and the “DUX4 expression, dose curve” value ([8]; Genea049 hESC-SkM, six concentration points 10 nM-3 μM, four days) was “dose-dependent decreased DUX4 expression”. For the same compound, the IC50 ([8]; Homo sapiens, Genea049 hESC-SkM dose curve, read-out: estimated IC50 value, DUX4-suppressive effect) was ~0.1 µM and the “Caspase 3/7 activation” value [9] was “dose-dependent decrease in Caspase 3/7 activation”.
